From US20020037829A1, “Use of DPPIV inhibitors as diuretic and anti-hypertensive agents” (priority 2000, published 2002)

Legend:
Format in all cases: cell-based, opossum
NHE3 = test: 22Na uptake assay of EIPA-sensitive Na/H exchange (NHE3) activity in OKP cells; details: 1 mM Diprotin A, 20 min pre-incubation in NH3/NH4+ buffer pH 7.4
Source text: As an initial approach to examine the physiological role of the association of DPPIV with NHE3, Diprotin A, a specific competitive inhibitor that binds to the active site of DPPIV, affects NHE3 activity in OKP cells was studied. OKP is a line of opossum proximal tubule cells that has transport properties very similar to the native proximal tubule and is therefore commonly used as an in vitro model for the mammalian proximal tubule.
(§1) The concentration dependence for Diprotin A inhibition of DPPIV activity was first evaluated. […] Diprotin A inhibited EIPA-sensitive Na/H exchange activity by 36.7±5.3%. To test the specificity of this inhibition, activity of another brush border transport process, Cl^−-formate exchange, measured as Cl^− gradient-stimulated, DIDS-sensitive uptake of 14C-formate was assayed.

DPPIV = test: Colorimetric DPPIV enzyme assay with glycylproline p-nitroanilide tosylate as substrate in OKP cells; details: 1 mM Diprotin A
Protocol: as §1

Cl-formate exchange = test: Cl- gradient-stimulated, DIDS-sensitive 14C-formate uptake (Cl-formate exchange) in OKP cells; details: Diprotin A
Protocol: as §1

Ile-Pro-Ile [Diprotin A]
inhibition of EIPA-sensitive Na/H exchange activity (NHE3): 36.7±5.3% | inhibition of DPPIV activity in OKP cells (DPPIV): completely inhibited | effect on Cl-formate exchange activity (Cl-formate exchange): no significant effect
